# Reference: ChEMBL document CHEMBL3046451, “Design, synthesis, characterization, and in vitro antimicrobial action of novel trisubstituted s-triazines” (2012)
# Tested on: Candida albicans
# Assay: Antifungal activity against Candida albicans MTCC 183 after 48 hr by agar streak dilution method
# Format: functional
# Conditions: MTCC 183, 48 h
row,Compound,MIC [µg/mL]
1,Cn1c(=O)cc(Oc2nc(NCCCl)nc(Nc3ccc(C#N)cc3)n2)c2ccccc21,50
2,Cn1c(=O)cc(Oc2nc(NCCO)nc(Nc3ccc(C#N)cc3)n2)c2ccccc21,> 50
3,COc1ccc2[nH]cc(CCNc3nc(Nc4ccc(C#N)cc4)nc(Oc4cc(=O)n(C)c5ccccc45)n3)c2c1,25

# Tested on: Aspergillus niger
# Assay: Antifungal activity against Aspergillus niger MTCC 282 after 48 hr by agar streak dilution method
# Format: functional
# Conditions: MTCC 282, 48 h
row,Compound,MIC [µg/mL]
1,Cn1c(=O)cc(Oc2nc(NCCCl)nc(Nc3ccc(C#N)cc3)n2)c2ccccc21,50
2,Cn1c(=O)cc(Oc2nc(NCCO)nc(Nc3ccc(C#N)cc3)n2)c2ccccc21,> 50
3,COc1ccc2[nH]cc(CCNc3nc(Nc4ccc(C#N)cc4)nc(Oc4cc(=O)n(C)c5ccccc45)n3)c2c1,25

# Tested on: Candida albicans
# Assay: Antifungal activity against Candida albicans MTCC 183 after 24 hr by paper disk diffusion method; also: test concentration or dose not given here
# Format: functional
# Conditions: not given
row,Compound,inhibition zone (IZ) [mm]
1,Cn1c(=O)cc(Oc2nc(NCCCl)nc(Nc3ccc(C#N)cc3)n2)c2ccccc21,9
2,Cn1c(=O)cc(Oc2nc(NCCO)nc(Nc3ccc(C#N)cc3)n2)c2ccccc21,<5
3,COc1ccc2[nH]cc(CCNc3nc(Nc4ccc(C#N)cc4)nc(Oc4cc(=O)n(C)c5ccccc45)n3)c2c1,15

# Tested on: Aspergillus niger
# Assay: Antifungal activity against Aspergillus niger MTCC 282 after 24 hr by paper disk diffusion method; also: test concentration or dose not given here
# Format: functional
# Conditions: not given
row,Compound,inhibition zone (IZ) [mm]
1,Cn1c(=O)cc(Oc2nc(NCCCl)nc(Nc3ccc(C#N)cc3)n2)c2ccccc21,8
2,Cn1c(=O)cc(Oc2nc(NCCO)nc(Nc3ccc(C#N)cc3)n2)c2ccccc21,<5
3,COc1ccc2[nH]cc(CCNc3nc(Nc4ccc(C#N)cc4)nc(Oc4cc(=O)n(C)c5ccccc45)n3)c2c1,12

# Tested on: Shigella flexneri
# Assay: Antibacterial activity against Shigella flexneri MTCC 1457 after 24 hr by agar streak dilution method
# Format: functional
# Conditions: MTCC 1457, 24 h
row,Compound,MIC [µg/mL]
1,Cn1c(=O)cc(Oc2nc(NCCCl)nc(Nc3ccc(C#N)cc3)n2)c2ccccc21,50
2,Cn1c(=O)cc(Oc2nc(NCCO)nc(Nc3ccc(C#N)cc3)n2)c2ccccc21,50
3,COc1ccc2[nH]cc(CCNc3nc(Nc4ccc(C#N)cc4)nc(Oc4cc(=O)n(C)c5ccccc45)n3)c2c1,50

# Tested on: Proteus vulgaris
# Assay: Antibacterial activity against Proteus vulgaris MTCC 1771 after 24 hr by agar streak dilution method
# Format: functional
# Conditions: MTCC 1771, 24 h
row,Compound,MIC [µg/mL]
1,Cn1c(=O)cc(Oc2nc(NCCCl)nc(Nc3ccc(C#N)cc3)n2)c2ccccc21,50
2,Cn1c(=O)cc(Oc2nc(NCCO)nc(Nc3ccc(C#N)cc3)n2)c2ccccc21,50
3,COc1ccc2[nH]cc(CCNc3nc(Nc4ccc(C#N)cc4)nc(Oc4cc(=O)n(C)c5ccccc45)n3)c2c1,50

# Tested on: Salmonella typhi
# Assay: Antibacterial activity against Salmonella enterica subsp. enterica serovar Typhi MTCC 733 after 24 hr by agar streak dilution method
# Format: functional
# Conditions: MTCC 733, 24 h
row,Compound,MIC [µg/mL]
1,Cn1c(=O)cc(Oc2nc(NCCCl)nc(Nc3ccc(C#N)cc3)n2)c2ccccc21,25
2,Cn1c(=O)cc(Oc2nc(NCCO)nc(Nc3ccc(C#N)cc3)n2)c2ccccc21,50
3,COc1ccc2[nH]cc(CCNc3nc(Nc4ccc(C#N)cc4)nc(Oc4cc(=O)n(C)c5ccccc45)n3)c2c1,50

# Tested on: Klebsiella pneumoniae
# Assay: Antibacterial activity against Klebsiella pneumoniae MTCC 109 after 24 hr by agar streak dilution method
# Format: functional
# Conditions: MTCC 109, 24 h
row,Compound,MIC [µg/mL]
1,Cn1c(=O)cc(Oc2nc(NCCCl)nc(Nc3ccc(C#N)cc3)n2)c2ccccc21,50
2,Cn1c(=O)cc(Oc2nc(NCCO)nc(Nc3ccc(C#N)cc3)n2)c2ccccc21,50
3,COc1ccc2[nH]cc(CCNc3nc(Nc4ccc(C#N)cc4)nc(Oc4cc(=O)n(C)c5ccccc45)n3)c2c1,50

# Tested on: Pseudomonas aeruginosa
# Assay: Antibacterial activity against Pseudomonas aeruginosa MTCC 741 after 24 hr by agar streak dilution method
# Format: functional
# Conditions: MTCC 741, 24 h
row,Compound,MIC [µg/mL]
1,Cn1c(=O)cc(Oc2nc(NCCCl)nc(Nc3ccc(C#N)cc3)n2)c2ccccc21,50
2,Cn1c(=O)cc(Oc2nc(NCCO)nc(Nc3ccc(C#N)cc3)n2)c2ccccc21,50
3,COc1ccc2[nH]cc(CCNc3nc(Nc4ccc(C#N)cc4)nc(Oc4cc(=O)n(C)c5ccccc45)n3)c2c1,50

# Tested on: Escherichia coli
# Assay: Antibacterial activity against Escherichia coli MTCC 739 after 24 hr by agar streak dilution method
# Format: functional
# Conditions: MTCC 739, 24 h
row,Compound,MIC [µg/mL]
1,Cn1c(=O)cc(Oc2nc(NCCCl)nc(Nc3ccc(C#N)cc3)n2)c2ccccc21,25
2,Cn1c(=O)cc(Oc2nc(NCCO)nc(Nc3ccc(C#N)cc3)n2)c2ccccc21,50
3,COc1ccc2[nH]cc(CCNc3nc(Nc4ccc(C#N)cc4)nc(Oc4cc(=O)n(C)c5ccccc45)n3)c2c1,50

# Tested on: Bacillus cereus
# Assay: Antibacterial activity against Bacillus cereus MTCC 619 after 24 hr by agar streak dilution method
# Format: functional
# Conditions: MTCC 619, 24 h
row,Compound,MIC [µg/mL]
1,Cn1c(=O)cc(Oc2nc(NCCCl)nc(Nc3ccc(C#N)cc3)n2)c2ccccc21,50
2,Cn1c(=O)cc(Oc2nc(NCCO)nc(Nc3ccc(C#N)cc3)n2)c2ccccc21,50
3,COc1ccc2[nH]cc(CCNc3nc(Nc4ccc(C#N)cc4)nc(Oc4cc(=O)n(C)c5ccccc45)n3)c2c1,25

# Tested on: Staphylococcus aureus
# Assay: Antibacterial activity against Staphylococcus aureus MTCC 96 after 24 hr by agar streak dilution method
# Format: functional
# Conditions: MTCC 96, 24 h
row,Compound,MIC [µg/mL]
1,Cn1c(=O)cc(Oc2nc(NCCCl)nc(Nc3ccc(C#N)cc3)n2)c2ccccc21,25
2,Cn1c(=O)cc(Oc2nc(NCCO)nc(Nc3ccc(C#N)cc3)n2)c2ccccc21,50
3,COc1ccc2[nH]cc(CCNc3nc(Nc4ccc(C#N)cc4)nc(Oc4cc(=O)n(C)c5ccccc45)n3)c2c1,6.25

# Tested on: Shigella flexneri
# Assay: Antibacterial activity against Shigella flexneri MTCC 1457 after 24 hr by paper disk diffusion method
# Format: functional
# Conditions: not given
row,Compound,inhibition zone (IZ) [mm]
1,Cn1c(=O)cc(Oc2nc(NCCCl)nc(Nc3ccc(C#N)cc3)n2)c2ccccc21,<5
2,Cn1c(=O)cc(Oc2nc(NCCO)nc(Nc3ccc(C#N)cc3)n2)c2ccccc21,7
3,COc1ccc2[nH]cc(CCNc3nc(Nc4ccc(C#N)cc4)nc(Oc4cc(=O)n(C)c5ccccc45)n3)c2c1,12

# Tested on: Proteus vulgaris
# Assay: Antibacterial activity against Proteus vulgaris MTCC 1771 after 24 hr by paper disk diffusion method; also: test concentration or dose not given here
# Format: functional
# Conditions: not given
row,Compound,inhibition zone (IZ) [mm]
1,Cn1c(=O)cc(Oc2nc(NCCCl)nc(Nc3ccc(C#N)cc3)n2)c2ccccc21,8
2,Cn1c(=O)cc(Oc2nc(NCCO)nc(Nc3ccc(C#N)cc3)n2)c2ccccc21,7
3,COc1ccc2[nH]cc(CCNc3nc(Nc4ccc(C#N)cc4)nc(Oc4cc(=O)n(C)c5ccccc45)n3)c2c1,6

# Tested on: Salmonella typhi
# Assay: Antibacterial activity against Salmonella enterica subsp. enterica serovar Typhi MTCC 733 after 24 hr by paper disk diffusion method
# Format: functional
# Conditions: not given
row,Compound,inhibition zone (IZ) [mm]
1,Cn1c(=O)cc(Oc2nc(NCCCl)nc(Nc3ccc(C#N)cc3)n2)c2ccccc21,13
2,Cn1c(=O)cc(Oc2nc(NCCO)nc(Nc3ccc(C#N)cc3)n2)c2ccccc21,9
3,COc1ccc2[nH]cc(CCNc3nc(Nc4ccc(C#N)cc4)nc(Oc4cc(=O)n(C)c5ccccc45)n3)c2c1,<5

# Tested on: Klebsiella pneumoniae
# Assay: Antibacterial activity against Klebsiella pneumoniae MTCC 109 after 24 hr by paper disk diffusion method
# Format: functional
# Conditions: not given
row,Compound,inhibition zone (IZ) [mm]
1,COc1ccc2[nH]cc(CCNc3nc(Nc4ccc(C#N)cc4)nc(Oc4cc(=O)n(C)c5ccccc45)n3)c2c1,10

# Tested on: Pseudomonas aeruginosa
# Assay: Antibacterial activity against Pseudomonas aeruginosa MTCC 741 after 24 hr by paper disk diffusion method
# Format: functional
# Conditions: not given
row,Compound,inhibition zone (IZ) [mm]
1,Cn1c(=O)cc(Oc2nc(NCCCl)nc(Nc3ccc(C#N)cc3)n2)c2ccccc21,7
2,Cn1c(=O)cc(Oc2nc(NCCO)nc(Nc3ccc(C#N)cc3)n2)c2ccccc21,9
3,COc1ccc2[nH]cc(CCNc3nc(Nc4ccc(C#N)cc4)nc(Oc4cc(=O)n(C)c5ccccc45)n3)c2c1,9

# Tested on: Escherichia coli
# Assay: Antibacterial activity against Escherichia coli MTCC 739 after 24 hr by paper disk diffusion method
# Format: functional
# Conditions: not given
row,Compound,inhibition zone (IZ) [mm]
1,Cn1c(=O)cc(Oc2nc(NCCCl)nc(Nc3ccc(C#N)cc3)n2)c2ccccc21,15
2,Cn1c(=O)cc(Oc2nc(NCCO)nc(Nc3ccc(C#N)cc3)n2)c2ccccc21,<5
3,COc1ccc2[nH]cc(CCNc3nc(Nc4ccc(C#N)cc4)nc(Oc4cc(=O)n(C)c5ccccc45)n3)c2c1,9

# Tested on: Bacillus cereus
# Assay: Antibacterial activity against Bacillus cereus MTCC 619 after 24 hr by paper disk diffusion method; also: test concentration or dose not given here
# Format: functional
# Conditions: not given
row,Compound,inhibition zone (IZ) [mm]
1,Cn1c(=O)cc(Oc2nc(NCCCl)nc(Nc3ccc(C#N)cc3)n2)c2ccccc21,11
2,Cn1c(=O)cc(Oc2nc(NCCO)nc(Nc3ccc(C#N)cc3)n2)c2ccccc21,<5
3,COc1ccc2[nH]cc(CCNc3nc(Nc4ccc(C#N)cc4)nc(Oc4cc(=O)n(C)c5ccccc45)n3)c2c1,13

# Tested on: Staphylococcus aureus
# Assay: Antibacterial activity against Staphylococcus aureus MTCC 96 after 24 hr by paper disk diffusion method
# Format: functional
# Conditions: not given
row,Compound,inhibition zone (IZ) [mm]
1,Cn1c(=O)cc(Oc2nc(NCCCl)nc(Nc3ccc(C#N)cc3)n2)c2ccccc21,12
2,Cn1c(=O)cc(Oc2nc(NCCO)nc(Nc3ccc(C#N)cc3)n2)c2ccccc21,<5
3,COc1ccc2[nH]cc(CCNc3nc(Nc4ccc(C#N)cc4)nc(Oc4cc(=O)n(C)c5ccccc45)n3)c2c1,15
